Results: ChEMBL document CHEMBL6083262, “Stereorandomized Oncocins with Preserved Ribosome Binding and Antibacterial Activity” (J Med Chem, 2024)
Converted amounts (≈) assume the structure as drawn. Non-standard residues stand in square brackets, D forms with d. Residues, ends and D or L forms follow the SMILES beside them. ξ: configuration not given here. ξP = O=C(O)C1CCCN1

Tests used:
[1] = Hemolytic activity in human RBC incubated for 4 hrs; format: toxicity, cell-based; settings: erythrocyte
[2] = tested on: Pseudomonas aeruginosa; assay: Antibacterial activity against multidrug-resistant Pseudomonas aeruginosa clinical isolate ZEM9A incubated for 16 to 20 hrs in full muller hinton medium by broth microdilution method; format: functional; settings: time 16-20 hrs
[3] = tested on: Pseudomonas aeruginosa; assay: Antibacterial activity against multidrug-resistant Pseudomonas aeruginosa PA14 4.18 harboring pmrB mutant incubated for 16 to 20 hrs in full muller hinton medium by broth microdilution method; format: functional; settings: time 16-20 hrs
[4] = tested on: Staphylococcus aureus; assay: Antimicrobial activity against methicillin-resistant Staphylococcus aureus COL incubated for 16 to 20 hrs in full muller hinton medium by broth microdilution method; format: functional; settings: time 16-20 hrs
[5] = tested on: Pseudomonas aeruginosa; assay: Antibacterial activity against multidrug-resistant Pseudomonas aeruginosa PA14 2P4 harboring pmrB mutant incubated for 16 to 20 hrs in full muller hinton medium by broth microdilution method; format: functional; settings: time 16-20 hrs
[6] = tested on: Pseudomonas aeruginosa; assay: Antibacterial activity against multidrug-resistant Pseudomonas aeruginosa PA14 4.13 harboring phoQ mutant incubated for 16 to 20 hrs in full muller hinton medium by broth microdilution method; format: functional; settings: time 16-20 hrs
[7] = tested on: Pseudomonas aeruginosa; assay: Antibacterial activity against multidrug-resistant Pseudomonas aeruginosa PA14 incubated for 16 to 20 hrs in full muller hinton medium by broth microdilution method; format: functional; settings: time 16-20 hrs
[8] = tested on: Pseudomonas aeruginosa; assay: Antimicrobial activity against Pseudomonas aeruginosa PAO1 incubated for 16 to 20 hrs in full muller hinton medium by broth microdilution method; format: functional; settings: time 16-20 hrs
[9] = tested on: Klebsiella pneumoniae; assay: Antimicrobial activity against Klebsiella pneumoniae NCTC 418 incubated for 16 to 20 hrs in 12.5 % muller hinton medium by broth microdilution method; format: functional; settings: time 16-20 hrs
[10] = tested on: Escherichia coli; assay: Antimicrobial activity against Escherichia coli W3110 incubated for 16 to 20 hrs in 12.5 % muller hinton medium by broth microdilution method; format: functional; settings: time 16-20 hrs
[11] = tested on: Pseudomonas aeruginosa; assay: Antimicrobial activity against Pseudomonas aeruginosa PAO1 incubated for 16 to 20 hrs in 12.5 % muller hinton medium by broth microdilution method; format: functional; settings: time 16-20 hrs
[12] = tested on: Klebsiella pneumoniae; assay: Antimicrobial activity against Klebsiella pneumoniae NCTC 418 incubated for 16 to 20 hrs in full muller hinton medium by broth microdilution method; format: functional; settings: time 16-20 hrs
[13] = tested on: Acinetobacter baumannii; assay: Antimicrobial activity against Acinetobacter baumannii ATCC 19606 incubated for 16 to 20 hrs in full muller hinton medium by broth microdilution method; format: functional; settings: time 16-20 hrs
[14] = tested on: Staphylococcus aureus; assay: Antimicrobial activity against methicillin-resistant Staphylococcus aureus COL incubated for 16 to 20 hrs in 12.5 % muller hinton medium by broth microdilution method; format: functional; settings: time 16-20 hrs

Row | SMILES | MHC [1] [µg/mL] | MIC [2] [µg/mL] | MIC [3] [µg/mL] | MIC [4] [µg/mL] | MIC [5] [µg/mL] | MIC [6] [µg/mL] | MIC [7] [µg/mL] | MIC [8] [µg/mL] | MIC [9] [µg/mL] | MIC [10] [µg/mL] | MIC [11] [µg/mL] | MIC [12] [µg/mL] | MIC [13] [µg/mL] | MIC [14] [µg/mL]
1 | CC[C@H](C)[C@H](NC(=O)[C@@H](CCCNC(=N)N)NC(=O)[C@H](CCCNC(=N)N)NC(=O)[C@@H]1CCCN1C(=O)[C@@H]1CCCN1C(=O)[C@H](CCCNC(=N)N)NC(=O)[C@@H]1CCCN1C(=O)[C@H](CCCNC(=N)N)NC(=O)[C@@H]1CCCN1C(=O)[C@H](CC(C)C)NC(=O)[C@H](Cc1ccc(O)cc1)NC(=O)[C@@H]1CCCN1C(=O)[C@@H]1CCCN1C(=O)[C@H](CCCCN)NC(=O)[C@H](CC(=O)O)NC(=O)[C@@H](N)C(C)C)C(=O)N[C@@H](Cc1ccc(O)cc1)C(=O)N[C@@H](CC(N)=O)C(=O)N[C@H](CCCNC(=N)N)C(N)=O (H-VDKPPYLPRPRPPR[dR]IYN[dR]-NH2) | > 1000 | > 64 | > 32 | > 64 | > 64 | > 32 | > 32 | – | – | – | – | – | – | –
2 | CC[C@H](C)[C@H](NC(=O)[C@H](CCCNC(=N)N)NC(=O)[C@H](CCCNC(=N)N)NC(=O)[C@@H]1CCCN1C(=O)[C@@H]1CCCN1C(=O)[C@H](CCCNC(=N)N)NC(=O)[C@@H]1CCCN1C(=O)[C@H](CCCNC(=N)N)NC(=O)[C@@H]1CCCN1C(=O)[C@H](CC(C)C)NC(=O)[C@H](Cc1ccc(O)cc1)NC(=O)C1CCCN1C(=O)C1CCCN1C(=O)[C@H](CCCCN)NC(=O)[C@H](CC(=O)O)NC(=O)[C@@H](N)C(C)C)C(=O)N[C@@H](Cc1ccc(O)cc1)C(=O)N[C@@H](CC(N)=O)C(=O)N[C@@H](CCCNC(=N)N)C(N)=O (stereo partly drawn) (H-VDK[ξP][ξP]YLPRPRPPRRIYNR-NH2) | > 1000 | – | – | > 64 | – | – | – | > 64 | 8 (≈ 3.35 µM) | 4 (≈ 1.67 µM) | > 16 | – | – | –
3 | CC[C@H](C)[C@H](NC(=O)[C@H](CCCNC(=N)N)NC(=O)[C@H](CCCNC(=N)N)NC(=O)[C@@H]1CCCN1C(=O)[C@@H]1CCCN1C(=O)[C@H](CCCNC(=N)N)NC(=O)[C@@H]1CCCN1C(=O)[C@H](CCCNC(=N)N)NC(=O)[C@@H]1CCCN1C(=O)[C@H](CC(C)C)NC(=O)[C@H](Cc1ccc(O)cc1)NC(=O)[C@H]1CCCN1C(=O)[C@H]1CCCN1C(=O)[C@H](CCCCN)NC(=O)[C@H](CC(=O)O)NC(=O)[C@@H](N)C(C)C)C(=O)N[C@@H](Cc1ccc(O)cc1)C(=O)N[C@@H](CC(N)=O)C(=O)N[C@@H](CCCNC(=N)N)C(N)=O (H-VDK[dP][dP]YLPRPRPPRRIYNR-NH2) | > 1000 | – | – | > 64 | – | – | – | > 64 | > 16 | – | > 16 | > 64 | > 64 | > 64
4 | CC[C@H](C)[C@H](NC(=O)[C@H](CCCNC(=N)N)NC(=O)[C@H](CCCNC(=N)N)NC(=O)[C@@H]1CCCN1C(=O)[C@@H]1CCCN1C(=O)[C@H](CCCNC(=N)N)NC(=O)[C@@H]1CCCN1C(=O)[C@H](CCCNC(=N)N)NC(=O)[C@@H]1CCCN1C(=O)[C@H](CC(C)C)NC(=O)[C@H](Cc1ccc(O)cc1)NC(=O)[C@H]1CCCN1C(=O)[C@@H]1CCCN1C(=O)[C@H](CCCCN)NC(=O)[C@H](CC(=O)O)NC(=O)[C@@H](N)C(C)C)C(=O)N[C@@H](Cc1ccc(O)cc1)C(=O)N[C@@H](CC(N)=O)C(=O)N[C@@H](CCCNC(=N)N)C(N)=O (H-VDKP[dP]YLPRPRPPRRIYNR-NH2) | > 1000 | – | – | > 64 | – | – | – | > 64 | > 16 | – | > 16 | > 64 | > 64 | –
